Data: patent US4983636A, “Composition and method of treating selected malignant conditions” (Rikagaku Kenkyusho Wako, priority 1976, dated 1991)
“And” between values parts separate entries of the source, which are not always exact repeats. Equal values may be shown once. “Also recorded” adds a separate entry of the source.

Columns and labels:
[1] = system: tumor cells of mice; assay: control of tumor cells of mice; conditions: in words
[2] = system: malignant cells of adenomatous carcinoma, squamous cell carninoma, sarcoma and the like, especially undifferentiated tumors; assay: clinical experiments, sensitivity of malignant cells; format: in vivo, human; conditions: in words
Text: (§1) In general, Ehrlich ascites tumor is highly sensitive to conventional carcinostatic agents of cytotoxic type, and Ehrlich solid tumor is relatively lowly sensitive to most of these known carcinostatic agents. […] Thus, the composition of the present invention is very unique in the point that it is efficacious against a broadrange of carcinomatous diseases.

[3] = system: E. coli S; assay: uptake of 14C-substrate (tryptophane) by E. coli S; conditions: for tryptophane incorporation: E. coli S
Experimental: (§2) In the Table, "glucose" was added as an energy source for cells in which propagation had been terminated and "CM" (Chloramphenicol) was added so as to terminate propagation of cells. […] Separately, instead of this composition of the foregoing additives, a composition comprising glucose, CM, 14C-substrate and colistin was added and cells were similarly obtained. The colistin was added for a comparison system to the Ba-added system because colistin is a permeation inhibitor for cell membranes (antibiotic substance).
(§3) In Table 2, the value of each numerator means a value measured by a scintillation counter and the value of each denominator means a ratio (%) to the value of the control (100%).

[4] = system: Ehrlich carcinoma; assay: Test 4: survival effect, intraperitoneally implanted Ehrlich carcinoma (FIG. 4); format: in vivo, mice of RFVL; conditions: 10 days
Experimental: Ten mice of RFVL which were 4 to 5 weeks old were used as the test animals and about 10^6 cells/0.2 ml of Ehrlich carcinoma were implanted intraperitoneally.
In FIG. 4, the suspension was administered at doses of 25, 50 and 100 mg/Kg/day to treated groups and the 0.85% biological sodium chloride solution alone was administered to a control group. Parenthesized values shown for each group are average values of the number of living days and the survival ratio.

[5] = system: Adeno-carcinoma 755; assay: Test 1: tumor weight, subcutaneously implanted Adeno-carcinoma 755; format: in vivo, mice (first filial generation of C57BL/6 and DBA/2); conditions: 11th day
Experimental: (§4) As the experimental animal, there were used four mice of the first filial generation of C57BL/6 and DBA/2, which were 6 to 7 weeks old. A carcinoma (Adeno-carcinoma 755) was implanted on the hypoderm in the back by using an implanting needle. […] This treatment was conduced once a day for 9 days. On the 11th day from the implantation, the weight of the tumor was measured with respect to each group to obtain the results shown in Table 3.

[6] = continuous administration for 10 days, toxicity; format: in vivo
Text: as §1

[7] = system: lymphosarcoma; assay: effect against lymphosarcoma; conditions: in words
[8] = excretion from the living body; format: in vivo; conditions: in words
[9] = system: Ehrlich carcinoma; assay: Test 3: tumor weight, subcutaneously implanted Ehrlich carcinoma (solid tumor); format: in vivo, mice of RFVL
Experimental: Ten mice of RFVL which were 4 to 5 weeks old were used as the experiemental animals, and about 10^6 cells/0.2 ml of Ehrlich carcinoma were implanted subcutaneously at the right armpit. […] This treatment was continued for 9 days. On the 11th day from the tumor implantation, the tumor weight was measured with respect to each group to obtain results shown in Table 5. In each of control and treated groups, the increase of the body weight in the tested mice during the test was 3.5 g as the average value determined on 10 mice.

[10] = system: Adeno-carcinoma 755; assay: Test 2: tumor weight, Adeno-carcinoma 755, intraperitoneal benzaldehyde; format: in vivo, mice (first filial generation of C57BL/6 and DBA/2); conditions: 11th day
Experimental: as §4
The treatment was continued for 9 days. On the 11th day from the implantation, the tumor weight was measured with respect to each group to obtain results shown in Table 4.

[11] = system: Escherichia coli; assay: influence on uptake of amino acids and nucleic acid bases by Escherichia coli (incl. time course, FIGS. 1 and 2); conditions: in words
Experimental: as §2

[12] = system: E. coli W3110; assay: uptake of 14C-substrate (thymine, adenine, glutamic acid, alanine) by E. coli W3110; conditions: for adenine incorporation / alanine incorporation / glutamic acid incorporation / thymine incorporation: E. coli W3110
Experimental: as §2, §3

[13] = system: Escherichia coli; assay: outflow of incorporated substrates from Escherichia coli cells (FIG. 3); conditions: FIG. 3, in words

Compound: O=Cc1ccccc1 [benzaldehyde]
- control of tumor cells of mice [1]: effective for controlling tumor cells of mice
- sensitivity of malignant cells [2]: highly sensitive to benzaldehyde
- tryptophane incorporation ([3]; benzaldehyde 10^-1 PPM): 1076 CPM
- tryptophane incorporation ([3]; benzaldehyde 10^-2 PPM): 915 CPM
- tryptophane incorporation ([3]; benzaldehyde 10^-3 PPM): 808 CPM
- survival effect ([4]; 50 mg/Kg per day i.p.): 15.4%
- survival effect ([4]; 100 mg/Kg per day i.p.): 26.9%
- Average Weight (tumor) ([5]; 10 ppm suspension s.c. for 9 days, control 5.8 g): 3.8 g
- Tumor Weight ([5]; individual animal, 10 ppm suspension 0.5 to 1.0 ml s.c. once a day for 9 days): 4.6 g and 2.6 g and 4.1 g
- daily dose without bad influences such as toxicity on the host ([6]; administered continuously for 10 days): up to 200 mg/Kg
- NOAEL at 240 h ([6]; in vivo, ip, continuous intraperitoneal injection for 10 days, read-out: daily dose at which no toxicity is observed): ≥ 200 mg/kg/day
- side effects ([6]; in words): causes no side effects
- effect against lymphosarcoma [7]: effective against lymphosarcoma
- excretion from the living body [8]: promptly excreted from the living body; also recorded: promptly extracted from living bodies
- increase of the body weight during the test (average) ([9]; 10 mg/Kg i.p. for 9 days, 10 mice, same in control group): 3.5 g
- Average Weight (tumor) ([9]; 10 mg/Kg i.p. for 9 days, 11th day, control 2.79 g): 1.24 g
- Tumor Weight ([9]; individual animal, 10 mg/Kg i.p. once a day for 9 days, 11th day, 10 mg/kg): 3.8 g and 2.4 g and 2.2 g and 0.8 g and 0.6 g and 0.5 g and 0.4 g and 0.3 g
- effect on Ehrlich solid tumor ([9]; solid versus ascites tumor, in words): acts strongly on the solid tumor rather than the ascites tumor; also recorded: prominent effect on Erlich solid tumor
- Average Weight (tumor) ([10]; 3.5% suspension 0.1 ml i.p. for 9 days, control 5.90 g): 3.55 g
- Tumor Weight ([10]; individual animal, 3.5% suspension 0.1 ml i.p. once a day for 9 days): 3.3 g and 3.4 g and 4.0 g and 3.5 g
- influence on uptake of nucleic acids and other amino acids ([11]; substrates other than tryptophane): incorporation of nucleic acids and other amino acids is inhibited; also recorded: exerts an uptake inhibiting action in the case of other substrates
- influence on uptake of tryptophane ([11]; tryptophane): the incorporation is promoted; also recorded: the uptake of tryptophane increases with the lapse of time; also recorded: specifically promotes the uptake of tryptophane among substrates
- adenine incorporation ([12]; adenine, benzaldehyde 10^-1 PPM): 3135 CPM
- adenine incorporation ([12]; adenine, benzaldehyde 10^-2 PPM): 3684 CPM
- adenine incorporation ([12]; adenine, benzaldehyde 10^-3 PPM): 4246 CPM
- alanine incorporation ([12]; alanine, benzaldehyde 10^-1 PPM): 5283 CPM
- alanine incorporation ([12]; alanine, benzaldehyde 10^-2 PPM): 5438 CPM
- alanine incorporation ([12]; alanine, benzaldehyde 10^-3 PPM): 5838 CPM
- glutamic acid incorporation ([12]; glutamic acid, benzaldehyde 10^-1 PPM): 2842 CPM
- glutamic acid incorporation ([12]; glutamic acid, benzaldehyde 10^-2 PPM): 2779 CPM
- glutamic acid incorporation ([12]; glutamic acid, benzaldehyde 10^-3 PPM): 3203 CPM
- thymine incorporation ([12]; thymine, benzaldehyde 10^-1 PPM): 1399 CPM
- thymine incorporation ([12]; thymine, benzaldehyde 10^-2 PPM): 1566 CPM
- thymine incorporation ([12]; thymine, benzaldehyde 10^-3 PPM): 1891 CPM
- damage to cell membranes [13]: causes no damage to cell membranes
- outflow of incorporated substrate [13]: outflow of the substrate is remarkably reduced and is not changed from outflow of the substrate in the control system

Compound: colistin [reference compound]
- tryptophane incorporation ([3]; colistin 5 PPM): 439 CPM
- tryptophane incorporation, ratio (%) to the control ([3]; colistin 5 PPM, control 100%): 65%
- adenine incorporation ([12]; adenine, colistin 5 PPM): 1066 CPM
- adenine incorporation, ratio (%) to the control ([12]; adenine, colistin 5 PPM, control 100%): 23%
- alanine incorporation ([12]; alanine, colistin 5 PPM): 1009 CPM
- alanine incorporation, ratio (%) to the control ([12]; alanine, colistin 5 PPM, control 100%): 17%
- glutamic acid incorporation ([12]; glutamic acid, colistin 5 PPM): 670 CPM
- glutamic acid incorporation, ratio (%) to the control ([12]; glutamic acid, colistin 5 PPM, control 100%): 16%
- thymine incorporation ([12]; thymine, colistin 5 PPM): 333 CPM
- thymine incorporation, ratio (%) to the control ([12]; thymine, colistin 5 PPM, control 100%): 16%
- damage to cell membranes [13]: cell membranes are destroyed
- outflow of incorporated substrate [13]: outflow of the substrate is extreme
